# Source: US7288630B2, “Potassium channel KCNQ5 and sequences encoding the same” (NeuroSearch A/S, priority 1999, dated 2007)
# Biological target: T1, KCNQ5 (Homo sapiens, UniProt Q9NR82)
# T1 construct: A complete cDNA was assembled and cloned into the oocyte expression vector PTLN; expressed in transfected cells; host or cells: Xenopus oocytes injected with cRNA from pTLN
# Test: Two-electrode voltage clamp of KCNQ5 homomers expressed in Xenopus oocytes
# Format: cell-based
# Procedure: KCNQ5 was expressed in Xenopus oocytes and its activity was investigated by two-electrode voltage clamping.
# After linearization of the KCNQ5-containing pTLN vector with Hpal, capped cRNA was transcribed in vitro using the mMessage mMachine cRNA synthesis kit (Ambion). Usually 5-15 ng of cRNA were injected into Xenopus oocytes previously isolated by manual defolliculation and short collagenase treatment. In co-expression experiments cRNAs were injected at a 1:1 ratio. Oocytes were kept at 17° C. in modified Barth's solution (90 mM NaCl, 1 mM KCl, 0.41 mM CaCl2, 0.33 mM Ca(NO3)2, 0.82 mM MgSO4, 10 mM HEPES, 100 U penicillin—100 μg streptomycin/ml, pH 7.6).
# Standard two-electrode voltage-clamp measurements were performed at room temperature 2-4 days after injection using a Turbotec 05 amplifier (npi instruments, Tamm, Germany) and pClamp 5.5 software (Axon Instruments). Currents were usually recorded in ND98 solution (see Table 2). Linopirdine (RBI, Natick, Mass.) was prepared as a 100 mM stock solution in DMSO and added to a final concentration of 200 μM to ND98.
# To determine the voltage dependence of apparent open probability, oocytes were clamped for 2 seconds to values between −80 mV to +40 mV, in 10 mV steps, followed by a constant −30 mV test pulse. Tail currents extrapolated to t=0 were obtained from a mono-exponential fit, normalised to the value at 0 mV and used for the analysis of apparent popen. Data analysis used PClamp6 and Microcal Origin 5.0.
# T1 sequence (Q9NR82 36-932): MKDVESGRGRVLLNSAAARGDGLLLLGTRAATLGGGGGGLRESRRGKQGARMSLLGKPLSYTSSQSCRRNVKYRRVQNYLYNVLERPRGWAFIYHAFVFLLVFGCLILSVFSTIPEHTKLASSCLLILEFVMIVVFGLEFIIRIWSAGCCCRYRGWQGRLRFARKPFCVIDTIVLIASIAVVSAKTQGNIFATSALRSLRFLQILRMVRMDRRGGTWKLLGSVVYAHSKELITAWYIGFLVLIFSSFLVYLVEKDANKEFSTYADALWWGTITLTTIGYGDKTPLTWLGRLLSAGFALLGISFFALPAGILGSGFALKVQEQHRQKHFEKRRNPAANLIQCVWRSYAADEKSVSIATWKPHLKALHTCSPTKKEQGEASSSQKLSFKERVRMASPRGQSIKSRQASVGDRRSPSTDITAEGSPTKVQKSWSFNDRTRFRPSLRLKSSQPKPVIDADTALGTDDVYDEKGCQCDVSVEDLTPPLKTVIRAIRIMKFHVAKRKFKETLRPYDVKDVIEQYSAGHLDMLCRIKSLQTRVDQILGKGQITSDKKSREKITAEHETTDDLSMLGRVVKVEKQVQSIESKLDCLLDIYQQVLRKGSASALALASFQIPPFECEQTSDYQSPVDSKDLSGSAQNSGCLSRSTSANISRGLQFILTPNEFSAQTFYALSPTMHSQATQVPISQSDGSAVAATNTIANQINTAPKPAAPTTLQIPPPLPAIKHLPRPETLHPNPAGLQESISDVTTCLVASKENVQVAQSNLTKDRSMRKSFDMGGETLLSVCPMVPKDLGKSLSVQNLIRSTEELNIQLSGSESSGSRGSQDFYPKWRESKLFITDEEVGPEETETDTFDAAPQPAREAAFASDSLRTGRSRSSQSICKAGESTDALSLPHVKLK
structure (smiles),measurement,setting,value
[Ba+2] [Ba^++],inhibition of KCNQ5 currents,5 mM,more than 80%
"O=C(O)c1cccnc1Nc1cccc(C(F)(F)F)c1 [Niflumic acid, niflumic acid]",shift of voltage dependence of apparent popen towards negative potentials,500 μM niflumic acid (FIG. 5B),about 20 mV
"O=C1c2ccccc2C(Cc2ccncc2)(Cc2ccncc2)c2ccccc21 [XE991, 10,10-bis-(4-pyridinyl-methyl)-9-(10H)-antracenone]",IC50,"extracellular application, Xenopus oocytes, from fit curves (FIG. 5A), read-out: IC50, inhibition of KCNQ5 homomers",65 ± 4 µM
